Data reported in PMC10291552, “Computational Design, Synthesis, and Biological Evaluation of Diimidazole Analogues Endowed with Dual PCSK9/HMG-CoAR-Inhibiting Activity” (Journal of Medicinal Chemistry, 2023).

Key:
PCSK9/LDLR = biological target: T1, PCSK9/LDLR (Homo sapiens, UniProt Q8NBP7); test: In vitro PCSK9-LDLR binding assay (CircuLex/CycLex kit); settings: for IC50: mean ± SD, three independent experiments, Hill slope fixed at −1
T1 construct: purchased CircuLex (CycLex Co., Nagano, Japan)
T1 sequence (Q8NBP7 153-692): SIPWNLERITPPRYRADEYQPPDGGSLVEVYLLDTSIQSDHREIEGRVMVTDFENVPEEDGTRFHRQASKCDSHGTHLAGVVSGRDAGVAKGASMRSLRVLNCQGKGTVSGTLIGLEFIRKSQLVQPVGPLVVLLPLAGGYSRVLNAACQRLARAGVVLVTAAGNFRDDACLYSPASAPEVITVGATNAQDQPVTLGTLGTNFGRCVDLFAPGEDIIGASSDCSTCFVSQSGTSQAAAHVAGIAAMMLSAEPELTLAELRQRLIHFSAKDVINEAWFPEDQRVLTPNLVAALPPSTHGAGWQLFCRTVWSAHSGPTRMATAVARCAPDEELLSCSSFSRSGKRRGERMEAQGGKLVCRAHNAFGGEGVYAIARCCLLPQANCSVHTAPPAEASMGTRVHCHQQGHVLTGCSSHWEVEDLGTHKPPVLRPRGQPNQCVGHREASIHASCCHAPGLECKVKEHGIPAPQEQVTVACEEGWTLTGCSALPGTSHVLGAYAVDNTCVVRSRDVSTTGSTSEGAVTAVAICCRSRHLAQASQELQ
T1 sequence (Q8NBP7 31-152 limits assumed): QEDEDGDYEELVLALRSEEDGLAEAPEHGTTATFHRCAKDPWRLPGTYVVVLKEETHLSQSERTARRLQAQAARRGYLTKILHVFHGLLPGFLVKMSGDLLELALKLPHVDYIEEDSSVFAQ
Description: Diimidazole analogues (0.1–1 × 10^6 nM) were tested using the in vitro PCSK9-LDLR binding assay (CycLex Co., Nagano, Japan) following the manufacturer’s instructions and with the conditions already optimized.[15] Briefly, the plates were pre-coated with a recombinant LDLR-AB domain containing the binding site of PCSK9. Before starting the assay, the tested analogues and/or the vehicle in DMSO were sonicated at 37 °C, diluted in the reaction buffer, and added in microcentrifuge tubes. Afterward, the reaction mixtures were added in each well of the microplate, and the reaction was started by adding His-tagged PCSK9 solution (3 μL). The microplate was allowed to incubate for 2 h at room-temperature (RT) shaking at 300 rpm on an orbital microplate shaker. Subsequently, the wells were washed 4 times with the wash buffer. After the last wash, the biotinylated anti-His-tag monoclonal antibody (100 μL) was added and incubated at RT for 1 h shaking at 300 rpm. After incubation, the wells were washed 4 times with wash buffer. After the last wash, 100 μL of HRP-conjugated streptavidin were added, and the plate was incubated for 20 min at RT. After incubation, the wells were washed 4 times with wash buffer. Finally, the substrate reagent (tetra-methylbenzidine) was added, and the plate was incubated for 10 min at RT shaking at ca. 300 rpm. The reaction was stopped with 2.0 M sulfuric acid, and the absorbance at 450 nm was measured using a Synergy H1 fluorescent plate reader (Winooski, VT, USA).
All the data sets were checked for normal distribution by D’Agostino and Pearson tests. Since they are all normally disturbed with p values of […], we proceeded with statistical analyses of one-way ANOVA followed by Tukey’s post hoc test using Graphpad Prism 9 (San Diego, CA, USA). Values were reported as means ± s.d.; p values of <0.05 were considered to be significant. The IC50 values of samples inhibiting PCSK9-LDLR binding were evaluated by using the log(inhibitor) vs response model of GraphPad Prism 9 (San Diego, CA, USA). This model assumes that the dose–response curves has a standard slope, equal to a Hill slope (or slope factor) of −1.0. This is the slope expected when a ligand binds to a receptor following the law of mass action and is the slope expected of a dose–response curve when the second messenger created by receptor stimulation binds to its receptor by the law of mass action (https://graphpad.com/guides/prism/latest/curvefitting/reg_dr_inhibit.htm).

platelet-rich plasma = test: Platelet aggregation by light transmission aggregometry (PCSK9-potentiated, epinephrine-induced); format: cell-based, human; settings: 10 nM preincubated with PCSK9 5 μg/mL; epinephrine 0.16 μM; n = 5 healthy donors
Description: Whole blood (WB) was drawn with a 19-gauge needle without venous stasis into citrate (1/10 volume of 0.129 M sodium citrate), discarding the first 4 mL. Platelet-rich plasma (PRP) was obtained by centrifuging whole blood for 10 min at 100g without breaks at room temperature as previously described.[44]
Platelet function was assessed by light transmission aggregometry using PAP-8 aggregometer (BioData). Lag time and area under the curve (AUC) were used as the main parameters describing the kinetic of platelet aggregation as previously described.[3] Briefly, PRP was preincubated with PCSK9 (5 μg/mL, 2 min at 37 °C) followed by epinephrine (0.16 μM) stimulation. To test the effect of Dim16 on PCSK9-dependent platelet aggregation, PCSK9 was preincubated with Dim16 (10 nM) for 15 min at room temperature and then added to PRP.

| Structure (SMILES) | IC50 (PCSK9/LDLR) [nM] | PCSK9/LDLR PPI, fold more active than P5 (PCSK9/LDLR; ratio versus P5) | effect on PCSK9 potentiation of platelet aggregation (lag time, AUC) (platelet-rich plasma) |
| --- | --- | --- | --- |
| C#Cc1ncc(-c2ncc(-c3ccc4ccccc4c3)n2CCCC(C)(C)C)n1CCCCCNC [Dim3, 5-(1-(4,4-Dimethylpentyl)-2′-ethynyl-5-(naphthalen-2-yl)-1H,3′H-[2,4′-biimidazol]-3′-yl)-N-methylpentan-1-amine] | 9 ± 10 | – | – |
| CNCCCCCn1c(-c2ncc(-c3ccc4ccccc4c3)n2CCCC(C)(C)C)cnc1I [Dim16, 5-(1-(4,4-Dimethylpentyl)-2′-iodo-5-(naphthalen-2-yl)-1H,3′H-[2,4′-biimidazol]-3′-yl)-N-methylpentan-1-amine] | 0.8 ± 1 | 2000 | significantly prevented |
